Laboratory results from patent publication US7384478B2, “Apparatus and process for preparing crystalline particles” (Glaxo Group Limited, priority 2002, dated 2008).
Marks after values point to notes of the source that are not given here. Blank lines part the entries; values can stand above or below the molecule they belong to.

Experiment: Particle sizing with the Malvern laser diffraction particle sizer
Assay type: physicochemical
Settings: for Malvern size data D10 / Malvern size data D50 / Malvern size data D90: crystalline fluticasone propionate particles, average of 2 results except values marked **
Experimental: The drug substance (fluticasone propionate, FP) (1 wt) was dissolved in acetone (15-20 vols, according to experiment) by heating to 56° C. and then allowed to cool to between 25 and 35° C. A first peristaltic pump was connected to the said FP/acetone solution and a second peristaltic pump was connected to a water reservoir wherein the water was in the temperature range of about 3-30° C. Prior to starting the pumps the mixing chamber was filled with a solution of acetone and water (the ratio of each being the same as the relative pumping rates from the two reservoirs). By doing this, the relative concentrations of the water to acetone remained constant throughout the crystallisation. The temperature of the mixing chamber was maintained in the range about −10 to +30° C. by passing tempered heat transfer fluid through the vessel jacket. The FP/acetone solution inlet and water inlet were arranged coaxially or in parallel (as shown in FIGS. 1a/1b/2a/2b) and the tip of the ultrasound probe was positioned so that it is just above the inlets. Stirring with the aid of a non-grinding magnetic stirrer bar or overhead stirrer was initiated as is the ultrasound at intensity 2-4 W/cm^2 (with respect to the tip face area of the probe). A comparison experiment with the ultrasound probe in place but zero power was performed. Re-crystallisations were carried out from various mixtures of acetone and water (by altering the flow rates of each) as dictated by the parameters set out in the experimental design. Finally the pumps were started simultaneously. A suspension of the crystals in the re-crystallisation mixture was allowed to exit via the overflow directly on to a filter bed. The slurry is isolated and washed with water and dried in vacuo between about 20 to 50° C.
Comparison experiments were performed using the apparatus with diametrically opposite input feeds described in WO 00/38811 in which save for the input feed geometry and the specific parameters given in the table below, and the vessel dimensions given below, other parameters Were similar to those used for the experiments using the present invention.
Samples were sized using the Malvern laser diffraction particle sizer and the results analysed using multi-dimensional model fitting software (such as Design Expert 5).

SMILES: CCC(=O)O[C@]1(C(=O)SCF)[C@H](C)C[C@H]2[C@@H]3C[C@H](F)C4=CC(=O)C=C[C@]4(C)[C@@]3(F)[C@@H](O)C[C@@]21C [Run 2, fluticasone propionate]
Malvern size data D10 (listed as 2): 0.52 micron | Malvern size data D50 (listed as 2): 2.08 micron | Malvern size data D90 (listed as 2): 5.10 micron

SMILES: CCC(=O)O[C@]1(C(=O)SCF)[C@H](C)C[C@H]2[C@@H]3C[C@H](F)C4=CC(=O)C=C[C@]4(C)[C@@]3(F)[C@@H](O)C[C@@]21C [Run 4, fluticasone propionate]
Malvern size data D10 (listed as 4): 0.43** micron | Malvern size data D50 (listed as 4): 1.51** micron | Malvern size data D90 (listed as 4): 3.75** micron | particle size distribution, comparison in words (versus micronised material or prior art configurations C and D): very good match

SMILES: CCC(=O)O[C@]1(C(=O)SCF)[C@H](C)C[C@H]2[C@@H]3C[C@H](F)C4=CC(=O)C=C[C@]4(C)[C@@]3(F)[C@@H](O)C[C@@]21C [Run 1, fluticasone propionate]
Malvern size data D10 (listed as 1): 0.60 micron | Malvern size data D50 (listed as 1): 2.25 micron | Malvern size data D90 (listed as 1): 6.29 micron

SMILES: CCC(=O)O[C@]1(C(=O)SCF)[C@H](C)C[C@H]2[C@@H]3C[C@H](F)C4=CC(=O)C=C[C@]4(C)[C@@]3(F)[C@@H](O)C[C@@]21C [Run 5, fluticasone propionate]
Malvern size data D10 (listed as 5): 0.86 micron | Malvern size data D50 (listed as 5): 2.98 micron | Malvern size data D90 (listed as 5): 6.92 micron

SMILES: CCC(=O)O[C@]1(C(=O)SCF)[C@H](C)C[C@H]2[C@@H]3C[C@H](F)C4=CC(=O)C=C[C@]4(C)[C@@]3(F)[C@@H](O)C[C@@]21C [Run 3, fluticasone propionate]
Malvern size data D10 (listed as 3): 0.47 micron | Malvern size data D50 (listed as 3): 1.78 micron | Malvern size data D90 (listed as 3): 4.39 micron

Now from value to molecule:

Malvern size data D10 (listed as 6): 0.53 micron | Malvern size data D50 (listed as 6): 2.06 micron | Malvern size data D90 (listed as 6): 4.93 micron
SMILES: CCC(=O)O[C@]1(C(=O)SCF)[C@H](C)C[C@H]2[C@@H]3C[C@H](F)C4=CC(=O)C=C[C@]4(C)[C@@]3(F)[C@@H](O)C[C@@]21C [Run 6, fluticasone propionate]

Malvern size data D10: 0.60 micron | Malvern size data D50: 1.62 micron | Malvern size data D90: 3.20 micron
SMILES: CCC(=O)O[C@]1(C(=O)SCF)[C@H](C)C[C@H]2[C@@H]3C[C@H](F)C4=CC(=O)C=C[C@]4(C)[C@@]3(F)[C@@H](O)C[C@@]21C [standard micronised FP, fluticasone propionate]

Malvern size data D10 (listed as 7): 1.15 micron | Malvern size data D50 (listed as 7): 4.19 micron | Malvern size data D90 (listed as 7): 10.00 micron
SMILES: CCC(=O)O[C@]1(C(=O)SCF)[C@H](C)C[C@H]2[C@@H]3C[C@H](F)C4=CC(=O)C=C[C@]4(C)[C@@]3(F)[C@@H](O)C[C@@]21C [Run 7, fluticasone propionate]

Malvern size data D10 (listed as 8): 1.88 micron | Malvern size data D50 (listed as 8): 5.13 micron | Malvern size data D90 (listed as 8): 11.86 micron
SMILES: CCC(=O)O[C@]1(C(=O)SCF)[C@H](C)C[C@H]2[C@@H]3C[C@H](F)C4=CC(=O)C=C[C@]4(C)[C@@]3(F)[C@@H](O)C[C@@]21C [Run 8, fluticasone propionate]
